# Tested on: INS-1E rat beta cells, no cytokines, CellTiter-Glo ATP, 48 h
# Experiment: cytokine-free beta-cell viability effect – INS-1E rat cells, ATP luminescence, cherry pick, counter-screen for beta-cell apoptosis protection project, dose response (AID 463229)
row,Structure (SMILES),AC50 [µM]
1,CCn1c(Cl)c(C=O)s/c1=N\S(=O)(=O)c1ccccc1,6.63
2,COc1ccc(C(=O)C/C(=C\C(=O)c2ccc(C)cc2)c2ccccc2)cc1,7.67
3,Cc1ccc(C(C)C)c(OCC(O)CN2CCc3ccccc3C2)c1 (configuration not stated),9.7
4,CN1/C(=C\C(=S)NC(=O)c2ccccc2Cl)C(C)(C)c2ccccc21,7.37
5,CCOc1ccc(OCc2ccc(C(=O)N/N=C(\C)c3ccccn3)cc2)cc1,5.09
6,CC1C/C(=C/c2ccncc2)C(=O)/C(=C/c2ccncc2)C1 (configuration not stated),4.62
7,C=CCn1nc([N+](=O)[O-])nc1Sc1cccc2cccnc12,6.79
8,O=C(Nc1ccc(Cl)cc1)Nc1ccc(Cl)c(Cl)c1,6.98
9,Cc1ccc([N+](=O)[O-])cc1N(CC(=O)Nc1ccc(S(=O)(=O)Nc2cccc(C(F)(F)F)c2)cc1)S(C)(=O)=O,4.1
10,C=C1C(=O)O[C@@H]2C[C@@H](C)[C@@H]3C=CC(=O)[C@@]3(C)[C@@H](OC(=O)CC(=O)O[C@H]3[C@@H]4C(=C)C(=O)O[C@@H]4C[C@@H](C)[C@@H]4C=CC(=O)[C@]43C)[C@H]12,0.386
11,C1CCC(C(CC2CCCCN2)C2CCCCC2)CC1 (configuration not stated),9.74
12,Nc1nc(-c2ccccn2)nc(N)c1Cc1ccc(Cl)cc1Cl,11.9
13,C[C@H]1CCC/C=C/C2C[C@H](O)CC2[C@H](O)/C=C/C(=O)O1 (some centres not stated),0.94
14,CC(=O)NC(c1cccc([N+](=O)[O-])c1)c1ccc2cccnc2c1O (configuration not stated),2.58
15,Cc1nnc2ccc(Oc3ccc(-c4ccccc4)cc3)nn12,8.92
16,Clc1ccc2c(N/N=C/c3cccc(Br)c3)ccnc2c1,10.7
17,Cc1cc(C(C)(C)C)cc(C)c1C[n+]1ccc2ccccc2c1,1.74
18,COc1ccc(-c2ccc([C@H]3[C@@H]4C=CCC[C@@]4(C)C(=O)N3Cc3ccccc3)c(F)c2)cc1,22.5
19,COc1ccc(C(=O)N/N=C(\c2ccccc2)c2ccccn2)cc1,3.51
20,C[N+]1=C(/C=C/Nc2ccccc2Cl)C(C)(C)c2ccccc21,12.2
21,O=C(Nc1ccc(OCC(=O)N2CCC(Cc3ccccc3)CC2)cc1)c1ccco1,7
22,CCCCC(=O)NC(c1ccccc1OC)c1ccc2cccnc2c1O (configuration not stated),2.13

row,Structure (SMILES),AC50 [µM]
1,Cc1cccc(/C=N\NC(=O)c2ccc(Cl)cc2)c1O,4.8
2,c1ccc2c(CN3CCCCCC3)c[nH]c2c1,3.61
3,Cn1nc(-c2ccc(Cl)cc2)nc2c(=O)n(C)c(=O)nc1-2,0.508
4,CC(C)(C)c1ccc(OCc2ccc(C(=O)N/N=C/c3ccc(O)c(O)c3)cc2)cc1,8.35
5,Cc1ccc(-c2cn(-c3ccc(SC(F)F)cc3)c3[n+]2CCC3)cc1,5.91
6,COc1ccc(Sc2nc(-c3ccccn3)ncc2OC)cc1,19.3
7,O=C(Nc1nc(-c2ccccn2)cs1)c1ccc(F)c(S(=O)(=O)N2CCOCC2)c1,7.51
8,COc1ccc2cc3[n+](cc2c1OC)CCc1cc2c(cc1-3)OCO2,5.44
9,CCOc1cc(S(=O)(=O)NCc2ccncc2)ccc1Cl,1.19
10,COc1cc(NC(=O)COc2cc(O)c3c(c2)OC(C)(C)CC3=O)cc(OC)c1OC,6.45
11,COc1ccc(CCNc2c(C)c(C)nc3ncnn23)cc1,3.68
12,CC(C)(C)OC(=O)NCc1ccc(NC(=O)c2nc[nH]c2C(=O)NCCNC(=O)c2[nH]cnc2C(=O)Nc2ccc(CNC(=O)OC(C)(C)C)cc2)cc1,10.8
13,COc1ccc(C2NCCc3c2[nH]c2ccccc32)cc1COc1ccc(F)cc1 (configuration not stated),14
14,c1ccc(-c2cc(-c3ccccc3)[n+](-c3ccccc3)c(-c3ccccc3)c2)cc1,2.65
15,CC(C)(C)c1cc([N+](=O)[O-])cc(C(C)(C)C)c1O,2.8
16,Cc1cc(C)n(-c2nc(NCCN(C)C)c3c4c(sc3n2)CCCC4)n1,9.54
17,CCc1nc(N2CCN(C(C)=O)CC2)c2c3c(sc2n1)CC(C(C)(C)C)CC3 (configuration not stated),2.79
18,COc1ccc(Cn2c(SCc3ccc(C)cc3)nc3cc(OC)c(OC)cc3c2=N)cc1Cl,6.89
19,COc1ccc(-c2nn(-c3ccccc3)cc2C(=O)OCC(=O)c2ccc(C)c([N+](=O)[O-])c2)cc1,0.866
20,c1ccc(CNc2c3ccccc3nc3ccccc23)cc1,11.5
21,Brc1ccc(-[n+]2c(-c3ccccc3)cc(-c3ccccc3)cc2-c2ccccc2)cc1,2.4
22,COC1=CC(=O)[C@]2(C=C1OC)OC[C@@H]1Oc3c(ccc4c3C=CC(C)(C)O4)C(=O)[C@@H]12,1.07

row,Structure (SMILES),AC50 [µM]
1,O=S(=O)(C/C(=C/CO)S(=O)(=O)c1ccccc1)c1ccccc1,10.9
2,COc1ccc(CC(=O)Nc2ccncc2Cl)cc1,10.6
3,Cc1cccc(/C=N/NC(=O)c2ccc3c(c2)OCCO3)c1O,7.38
4,C(=N\Nc1ncnc2sc3c(c12)CCC3)/c1cccs1,9.08
5,CC(C)(C)OC(=O)NCc1ccc(NC(=O)c2nc[nH]c2C(=O)NCCCCNC(=O)c2[nH]cnc2C(=O)Nc2ccc(CNC(=O)OC(C)(C)C)cc2)cc1,5.34
6,Cc1oc2c(c1C(=O)c1ccccc1)C(=O)C(=O)c1ccccc1-2,3.52
7,Cc1ccc2nc(-c3cccc(-c4cccc(Cl)c4)c3)c(NCc3ccccc3)n2c1,7.11
8,CC(=O)N(Cc1ccc(F)cc1)C1=C(NCCc2ccccc2)C(=O)c2ccccc2C1=O,4.13
9,N#CC(c1ccc(Cl)cc1)c1ccc2c(C(F)(F)F)cc(C(F)(F)F)nc2n1 (configuration not stated),0.898
10,Cc1cc(N/N=C/c2ccc(F)cc2)nc(-n2nc(C)cc2C)n1,20.1
11,CC(C)c1ccc(/C=C(\c2nc3ccccc3[nH]2)S(=O)(=O)c2ccccc2)cc1,4.54
12,CN(C)c1ccc(-c2cc(O)c3ncccc3c2)cc1,26.9
13,CCC(CO)Oc1cc(NCc2ccc(C)c(C)c2)c2ncn(C(C)C)c2c1 (configuration not stated),4.91
14,O=C(NCc1cccnc1)c1ccc(-c2cc3ccccc3oc2=O)cc1,5.35
15,C/C(=N\N1C(=O)c2ccccc2NC1c1ccccc1)c1ccccc1O (configuration not stated),19.1
16,CC(Oc1cccc(Cl)c1)C(=O)Nc1cc(S(=O)(=O)N2CCOCC2)ccc1N1CCCCC1 (configuration not stated),5.68
17,O=C(N/N=C\c1c(O)ccc2ccccc12)c1ccc(Cn2cccn2)o1,4.39
18,CSc1nc(-c2ccccc2)nc(C(Cl)Cl)n1,3.88
19,CN1CCN(c2ccc([N+](=O)[O-])c3no[n+]([O-])c23)CC1,1.9
20,COc1ccc(/C=N/NC(=O)c2nc(-c3ccccc3)n(-c3ccccc3)n2)c(O)c1,4.37
21,COc1cccc(Cn2c(NCc3ccco3)nc3c2c(=O)n(C)c(=O)n3C)c1,6.42
22,CC(=O)C1=C(c2ccc(Br)cc2)C(=O)c2ccccc2C1=O,3.63

row,Structure (SMILES),AC50 [µM]
1,CC1=NNC(=O)/C1=C\c1cn(-c2ccccc2)nc1-c1ccccc1,7.57
2,Oc1c(CN2CCN(c3ccccc3)CC2)cc(Br)c2cccnc12,5.87
3,Clc1ccc(CSc2ccc(-c3ccccn3)nn2)cc1,6.32
4,Cc1nc(Nc2ccc(Cl)c(Cl)c2)sc1C(=O)Nc1ccccc1,9.24
5,O=C(NC(NC(=S)Nc1ccccc1)C(Cl)(Cl)Cl)c1cccc(Cl)c1 (configuration not stated),13.9
6,Cc1ccccc1N=Nc1ccc(O)c2ncccc12,4.41
7,O=C(NCc1cccnc1)c1ccc(NC(=O)c2cccc([N+](=O)[O-])c2)cc1,0.205
8,COc1ccc(CN(C)c2ccc(S(=O)(=O)N3CCN(C)CC3)cc2[N+](=O)[O-])cc1OC,2.83
9,O=C(N/N=C/c1ccc([N+](=O)[O-])o1)c1ccc(O)cc1,7.45
10,Cc1ccc(C2(c3ccc(C)cc3)CC2C(=O)Nc2ccc([N+](=O)[O-])cc2O)cc1 (configuration not stated),3.79
11,C/C(=N/NC(=O)c1cccs1)c1c(C)[nH]n(-c2nc3ccccc3s2)c1=O,16.2
12,Clc1ccc(OCCN2CCN(c3ncnc4sccc34)CC2)cc1,0.726
13,O=C(N/N=C(\c1ccccc1)c1ccccn1)c1cccc([N+](=O)[O-])c1,2.11
14,O=C(N/N=C\c1ccc([N+](=O)[O-])s1)c1cncc(Br)c1,6.53
15,O=c1c2ccccc2nc(COc2ccccc2)n1/N=C/c1ccc(O)cc1O,15.9
16,Nc1nc(Cl)cc(N2CCC(c3cc(-c4ccc(Cl)cc4)n[nH]3)CC2)n1,5.56
17,CC(C)CC(=O)NC(c1cccs1)c1ccc2cccnc2c1O (configuration not stated),2.33
18,Cc1c(C(C)C)c(=O)n(-c2ccc(S(=O)(=O)NCc3ccccc3)cc2)n1C,3.71
19,Oc1c(Br)cc(Br)cc1/C=N/NC(=S)N[C@H]1CC2C=CC1C2 (some centres not stated),12.1
20,Cc1ccc(C)c(N=Nc2ccc(O)c3ncccc23)c1,3.98
21,C/C(=N\NC(=O)C(c1ccccc1)c1ccccc1)c1ccccn1,8.03
22,COc1ccc(/C=C/c2nc3ccccc3n2C)cc1,3.13

row,Structure (SMILES),AC50 [µM]
1,CC(C)Oc1ccc(S(=O)(=O)N2CCCCC2)cc1NC(=O)CN1CCCC1c1cccs1 (configuration not stated),6.59
2,O=C(N/N=C\c1cc(Br)ccc1O)c1ccc(S(=O)(=O)N2CCCCC2)cc1,3.54
3,CCOC(=O)c1nc(NNC(=O)c2ccc([N+](=O)[O-])cc2)sc1C,7.04
4,CCC[N+]1(CC#CCC(c2ccccc2)c2ccccc2)CCCCC1,2.03
5,CCN(CC)CCn1nc2c3c(cccc3c1=O)-c1ccccc1-2,6.74
6,c1ccc(-c2nc3nonc3nc2-c2ccccc2)cc1,11.1
7,COc1ccc(C(=O)N2CCN(c3ccc([N+](=O)[O-])c(NCCc4ccc(OC)c(OC)c4)c3)CC2)cc1,3.46
8,COCCC1CCCCN1C(=O)c1cc(COc2ccc(-n3cncn3)cc2)on1 (configuration not stated),6.35
9,COC(=O)c1ccc2[nH]c3cccc(/C(=C/c4ccccc4)c4ccccc4)c3c2c1,15.7
10,COc1c(CC=C(C)C)cc(C2CC(=O)c3c(O)cc(O)cc3O2)cc1CC=C(C)C (configuration not stated),4.05
11,CCN(CC)S(=O)(=O)c1ccc(Oc2ccc(S(=O)(=O)N(CC)CC)cc2)cc1,2.88
12,Cc1ccc(C)c(NC(=O)/C(C#N)=C/c2cn(CC(=O)NCc3ccco3)c3ccccc23)c1,5.47
13,CCNC(=O)Nc1cc(S(=O)(=O)Nc2ccc(OC)cc2)ccc1N1CCOCC1,6.84
14,O=C(O)CCCC(=O)Nc1ccc(C(=O)NCc2cccnc2)cc1,4.54
15,COc1cc(CC(=O)Nc2nc(-c3ccc(F)c(F)c3)cs2)cc(OC)c1OC,7.17
16,O=S(=O)(c1cc(F)ccc1F)N1CCN(c2ncnc3ccccc23)CC1,5.01
17,CC1CCN(Cc2c(C(=O)N/N=C/c3ccccc3O)nnn2-c2nonc2N)CC1,5.67
18,O=[N+]([O-])c1ccc(NC(=S)NCCc2ccc(Cl)cc2)cc1,8.12
19,CCCCCc1cc(=O)oc2c(C(CCN3CCCC(C)C3)c3cc(OC)c(OC)c(OC)c3)c(OC)cc(OC)c12 (configuration not stated),14
